Results reported in patent US6730674B2, “Sulfonyl pyridazinone compounds useful as aldose reductase inhibitors” (Pfizer Inc, priority 2001, dated 2004).

Structure (SMILES) | melting point [°C]
O=c1ccc(S(=O)(=O)c2ccc(Cl)c(Cl)c2)n[nH]1 [Example 4D, 6-(3,4-Dichloro-benzenesulfonyl)-2H-pyridazin-3-one] | 166 to 168
O=c1ccc(S(=O)(=O)c2c(F)cc(F)cc2Cl)n[nH]1 [Example 4N, 6-(2-Chloro-4,6-difluoro-benzenesulfonyl)-2H-pyridazin-3-one] | > 250
O=c1ccc(S(=O)(=O)c2cccc(Br)c2)n[nH]1 [Example 4I, 6-(3-Bromo-benzenesulfonyl)-2H-pyridazin-3-one] | > 220
Cc1cc(Cl)cc(S(=O)(=O)c2ccc(=O)[nH]n2)c1 [Example 4M, 6-(3-Chloro-5-methyl-benzenesulfonyl)-2H-pyridazin-3-one] | > 250
